Measurements: patent US10668039B2, “Methods for treatment of adenoid cystic carcinoma” (THE CHILDREN'S MEDICAL CENTER CORPORATION, priority 2016, dated 2020)
Entries after “also recorded” stand apart in the source; their conditions may differ.

Columns and labels:
MYB [1] = test: Western blot of ACC primagrafts, MYB; type: in vivo, human; details: long-term ACC x11 and short-term (3 days) ACC x5M1 primagrafts
Excerpt: (§1) Primagraft experiments: For in vivo drug testing, ACC tumor fragments from host animals were implanted subcutaneously into the flank of nude mice (CRL: ATH/NU). Once tumors reached 125-250 mm3, mice were randomized to receive vehicle or drug diluted in 10:90 DMSO:10% hydroxypropyl-beta-cyclodextrin orally until controls reached a tumor volume endpoint of 1-2 cm3 (4-9 mice per group: x5M1 and x6, 4 treated vs. 9 vehicle controls; x9, 4 treated vs. 5 vehicle controls; x11, 5 treated vs. 8 vehicle controls). Mice were treated with ATRA (ACC x6 and x11: 4 mg/mL, 0.2 mL flat dose; ACC×9: 3 mg/mL, 0.2 mL flat dose) or isotretinoin (30 mg/mL, 0.2 mL flat dose). Tumor growth was monitored and mice weighed twice weekly and studies ended when final group reached tumor volume endpoint. No statistical methods were employed to determine the sample size, and no blinding of investigators was performed. […]
Western blots: ACC x11 (from long-term tumor growth inhibition studies) and ACC x5M1 (from short-term kinetics studies) primagrafts were mechanically homogenized in RIPA lysis buffer (Thermo Scientific) supplemented by addition of complete protease inhibitor cocktail (Roche). Protein concentrations were determined by DC protein assay (BioRad).

cleaved caspase-3 = test: Immunohistochemistry of ACC primagrafts, cleaved caspase-3; type: in vivo, nude mice; details: ACC x6, x9, x11 primagrafts at conclusion of long-term studies
Excerpt: as §1
Immunohistochemistry: Sectioning and staining was carried out by the Dana-Farber/Harvard Cancer Center Specialized Histopathology Core using standard procedures on ACC x6, x9, and x11 samples (from long-term tumor growth inhibition studies). […] Primary antibody was detected using Bond Polymer Refine Detection kit. […] Images (>200 nuclei each) from three different individual primagrafts were blindly quantitated.

c-myb:GFP positive cells = test: Confocal imaging of CHT, c-myb:GFP positive cells; type: in vivo, zebrafish; details: 10 μM, treated 48-72 hpf, imaged at 72 hpf
Protocol: Confocal imaging: Double transgenic c-myb:GFP; lyz:dsRed or c-myb:GFP; mpeg1:mCherry embryos from the same clutch were treated between 48-72 hpf (n=4 biological replicates per treatment group) with 10 μM ATRA diluted in E3. Live 72 hpf embryos were embedded in 0.8% low-melting point agarose containing 0.04 mg/mL Tricaine and imaged on a Nikon Eclipe Ti microscope with 20× Plan-Apo DIC N.A. 0.75. CHT cells were counted in Z-stack image projections processed on Imaris software (Bitplane).

H3K27ac = test: ChIP-seq of short-term ACC x9 primagrafts, H3K27ac; type: in vivo, human; details: 3 days
Excerpt: as §1
(§2) All ChIP-Seq datasets were aligned to UCSC build version hg19 of the human genome using Bowtie2 (version 2.2.1) with the following parameters: -end-to-end, —NO, -L20. […] ChIP-seq enrichment was determined as described previously in a 5 kb region (as counts per million) centered on the enriched peak regions (n=1,868) of the given MYB datasets. […]

MYB [2] = test: RNA-seq of short-term ACC x9 primagrafts, MYB; type: in vivo, human; details: 3 days, n=3, p<0.05
Excerpt: as §1, with “performed. After long-term tumor growth inhibition studies were completed, the ATRA treated mice stopped receiving treatment and were maintained longer as indicated to monitor tumor maintenance after treatment cessation. For long-term tumor growth inhibition studies, ACC x6, x9, and x11 models were used and primagrafts collected at the completion of the study. Short-term kinetics studies were also undertaken with ACC x9 and x5M1 primagrafts involving 3 day ATRA treatments.” for “performed.”

[3] = system: human salivary adenoid cystic carcinoma cell; details: Chen et al. 1998; cell line said not to be bona fide ACC; cited from earlier work
c-myb = test: In situ hybridization of whole embryos, c-myb; type: in vivo, zebrafish; details: 10 μM, treated 48-72 hpf, fixed at 72 hpf
Protocol: In situ hybridization: In situ hybridization was done for c-myb as described in North (2007). Wildtype AB zebrafish embryos were treated with RAs in the E3 water at the indicated doses during 48-72 hpf, after which point they were fixed in 4% PFA. Qualitative scoring (number of embryos with altered number of HSCs scored) of c-myb positive cells was conducted by assessing the caudal hematopoietic tissue (CHT) region by the tail.
In situ hybridization: Wildtype AB embryos from the same clutch were treated between 48-72 hpf with 10 μM retinoic acid agonists diluted in E3, fixed at 72 hpf in 4% paraformaldehyde, and processed as previously described. CHT staining in the embryos was blindly scored as high, medium, or low, and summed across 3 independent experiments as done previously. Representative images were acquired on a Nikon ZMS 18 microscope.

MYB [4] = test: ChIP-seq of short-term ACC x9 primagrafts, MYB binding; type: in vivo, human; details: 3 days
Excerpt: as §1, §2

Compound: CC(C=CC1=C(C)CCCC1(C)C)=CC=C/C(C)=C/C(=O)O [ATRA, (E)-3,7-dimethyl-9-(2,6,6-trimethyl-1-cyclo-hexen-1-yl)-2,4,6,8-nonatetraenoic acid]
- MYB protein expression (wildtype and fusion) (MYB [1]): decreases
- cell death (cleaved caspase-3 positive nuclei) (cleaved caspase-3): induced more cell death
- number of c-myb:GFP+ cells in the CHT (c-myb:GFP positive cells): significant decrease; also recorded: decreased
- H3K27ac at translocated enhancer sites (H3K27ac): decrease
- decrease of MYB levels (MYB [2]): ~20%
- effect on cell proliferation in vitro [3]: anti-proliferative effects
- c-myb expression (staining) in the CHT (c-myb): significant decrease; also recorded: decreased staining
- enrichment among MYB-bound regions genome-wide (MYB [4]): reduced enrichment
